Source: ChEMBL document CHEMBL2311451, “Discovery of a selective M₄ positive allosteric modulator based on the 3-amino-thieno[2,3-b]pyridine-2-carboxamide scaffold: development of ML253, a potent and brain penetrant compound that is active in a preclinical model of schizophrenia” (Bioorg Med Chem Lett, 2013)
Each block holds one compound with its values, some of them ahead of it.

What was measured:
[1] = target: T1, Muscarinic acetylcholine receptor M4 (Homo sapiens) (UniProt P08173); test: Positive allosteric modulation of human muscarinic M4 receptor expressed in CHO-K1 cells assessed as leftward shift in acetylcholine response treated for 144 secs prior to acetylcholine addition measured for 5 mins by Fluo-4-AM based calcium mobilization assay relative to control; assay type: functional, cell-based
T1 sequence (whole entry): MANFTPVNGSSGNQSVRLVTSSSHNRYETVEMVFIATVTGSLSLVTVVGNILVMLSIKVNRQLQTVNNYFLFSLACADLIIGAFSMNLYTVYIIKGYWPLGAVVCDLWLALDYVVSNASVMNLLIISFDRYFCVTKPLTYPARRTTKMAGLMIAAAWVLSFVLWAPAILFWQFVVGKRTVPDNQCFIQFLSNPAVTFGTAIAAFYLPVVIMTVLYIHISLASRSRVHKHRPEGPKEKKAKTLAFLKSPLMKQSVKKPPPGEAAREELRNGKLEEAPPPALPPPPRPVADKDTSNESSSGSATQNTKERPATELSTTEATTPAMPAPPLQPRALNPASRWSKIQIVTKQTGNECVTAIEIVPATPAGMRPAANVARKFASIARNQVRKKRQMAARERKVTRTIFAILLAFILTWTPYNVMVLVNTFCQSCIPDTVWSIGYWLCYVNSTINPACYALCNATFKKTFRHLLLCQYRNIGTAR

[2] = target: T2, Muscarinic acetylcholine receptor M4 (Homo sapiens, UniProt P08173); test: Positive allosteric modulation of human muscarinic M4 receptor expressed in CHO-K1 cells assessed as leftward shift in acetylcholine response treated for 144 secs prior to acetylcholine addition measured for 5 mins by Fluo-4-AM based calcium mobilization assay; assay type: functional, cell-based; settings: read-out: EC50
T2 sequence (P08173 whole entry): T1 sequence (whole entry)

Rattus norvegicus [3] = test: Antipsychotic activity in Sprague-Dawley rat assessed as reversal of amphetamine-induced hyperlocomotion at 100 mg/kg, ip after 90 mins; assay type: functional; settings: route intraperitoneal
Rattus norvegicus [4] = test: Antipsychotic activity in Sprague-Dawley rat assessed as reversal of amphetamine-induced hyperlocomotion at 56.6 mg/kg, ip after 90 mins; assay type: functional; settings: route intraperitoneal
Rattus norvegicus [5] = test: Antipsychotic activity in Sprague-Dawley rat assessed as reversal of amphetamine-induced hyperlocomotion at 30 mg/kg, ip after 90 mins; assay type: functional; settings: route intraperitoneal
Rattus norvegicus [6] = test: Antipsychotic activity in Sprague-Dawley rat assessed as reversal of amphetamine-induced hyperlocomotion at 10 mg/kg, ip after 90 mins; assay type: functional; settings: route intraperitoneal
Rattus norvegicus [7] = test: Antipsychotic activity in Sprague-Dawley rat assessed as reversal of amphetamine-induced hyperlocomotion at 3 mg/kg, ip after 90 mins; assay type: functional; settings: route intraperitoneal
Brain = test: Drug level in rat brain at 10 mg/kg, ip up to 6 hrs; assay type: ADME, organism-based; design: dose 10 mg/kg, route intraperitoneal; settings: in vivo
[8] = AUC in rat at 1 mg/kg, iv; assay type: ADME, organism-based; design: dose 1 mg/kg, route intravenous; settings: plasma
[9] = Mean residence time in rat at 1 mg/kg, iv; assay type: ADME, organism-based; design: dose 1 mg/kg, route intravenous; settings: in vivo
[10] = Volume of distribution at steady state in rat at 1 mg/kg, iv; assay type: ADME, organism-based; design: dose 1 mg/kg, route intravenous; settings: in vivo, read-out: Vdss
[11] = Half life in rat at 1 mg/kg, iv; assay type: ADME, organism-based; design: dose 1 mg/kg, route intravenous; settings: in vivo
[12] = Clearance in rat at 1 mg/kg, iv; assay type: ADME, organism-based; design: dose 1 mg/kg, route intravenous; settings: in vivo
[13] = target: Sodium-dependent dopamine transporter (Homo sapiens) (UniProt Q01959); test: Binding affinity to human DAT at 10 uM by radioligand binding assay
Rattus norvegicus [14] = species on record: Rattus norvegicus; test: Binding affinity to rat GABAA receptor at 10 uM by radioligand binding assay
[15] = target: Muscarinic acetylcholine receptor M5 (Rattus norvegicus, UniProt P08911); test: Positive allosteric modulation of rat muscarinic M5 receptor assessed as acetylcholine response
[16] = target: Muscarinic acetylcholine receptor M5 (Homo sapiens, UniProt P08912); test: Positive allosteric modulation of human muscarinic M5 receptor expressed in CHO-K1 cells assessed as leftward shift in acetylcholine response treated for 144 secs prior to acetylcholine addition measured for 5 mins by Fluo-4-AM based calcium mobilization assay; assay type: functional, cell-based
[17] = target: Muscarinic acetylcholine receptor M3 (Rattus norvegicus, UniProt P08483); test: Positive allosteric modulation of rat muscarinic M3 receptor assessed as acetylcholine response
[18] = target: Muscarinic acetylcholine receptor M3 (Homo sapiens, UniProt P20309); test: Positive allosteric modulation of human muscarinic M3 receptor expressed in CHO-K1 cells assessed as leftward shift in acetylcholine response treated for 144 secs prior to acetylcholine addition measured for 5 mins by Fluo-4-AM based calcium mobilization assay; assay type: functional, cell-based
[19] = target: Muscarinic acetylcholine receptor M2 (Rattus norvegicus, UniProt P10980); test: Positive allosteric modulation of rat muscarinic M2 receptor assessed as acetylcholine response
[20] = target: Muscarinic acetylcholine receptor M2 (Homo sapiens, UniProt P08172); test: Positive allosteric modulation of human muscarinic M2 receptor expressed in CHO-K1 cells assessed as leftward shift in acetylcholine response treated for 144 secs prior to acetylcholine addition measured for 5 mins by Fluo-4-AM based calcium mobilization assay; assay type: functional, cell-based
[21] = target: Muscarinic acetylcholine receptor M1 (Rattus norvegicus, UniProt P08482); test: Positive allosteric modulation of rat muscarinic M1 receptor assessed as acetylcholine response
[22] = target: Muscarinic acetylcholine receptor M1 (Homo sapiens, UniProt P11229); test: Positive allosteric modulation of human muscarinic M1 receptor expressed in CHO-K1 cells assessed as leftward shift in acetylcholine response treated for 144 secs prior to acetylcholine addition measured for 5 mins by Fluo-4-AM based calcium mobilization assay; assay type: functional, cell-based
Plasma = test: Fraction unbound in rat plasma; assay type: ADME, cell-free
[23] = target: Muscarinic acetylcholine receptor M4 (Rattus norvegicus) (UniProt P08485); test: Positive allosteric modulation of rat muscarinic M4 receptor assessed as acetylcholine response at 10 uM relative to acetylcholine
[24] = target: T1, Muscarinic acetylcholine receptor M4 (Homo sapiens); test: Positive allosteric modulation of human muscarinic M4 receptor expressed in CHO-K1 cells assessed as leftward shift in acetylcholine response at 10 uM treated for 144 secs prior to acetylcholine addition measured for 5 mins by Fluo-4-AM based calcium mobilization assay relative to acetylcholine; assay type: functional, cell-based
[25] = target: T3, Muscarinic acetylcholine receptor M4 (Rattus norvegicus, UniProt P08485); test: Positive allosteric modulation of rat muscarinic M4 receptor assessed as acetylcholine response
T3 sequence (P08485 whole entry): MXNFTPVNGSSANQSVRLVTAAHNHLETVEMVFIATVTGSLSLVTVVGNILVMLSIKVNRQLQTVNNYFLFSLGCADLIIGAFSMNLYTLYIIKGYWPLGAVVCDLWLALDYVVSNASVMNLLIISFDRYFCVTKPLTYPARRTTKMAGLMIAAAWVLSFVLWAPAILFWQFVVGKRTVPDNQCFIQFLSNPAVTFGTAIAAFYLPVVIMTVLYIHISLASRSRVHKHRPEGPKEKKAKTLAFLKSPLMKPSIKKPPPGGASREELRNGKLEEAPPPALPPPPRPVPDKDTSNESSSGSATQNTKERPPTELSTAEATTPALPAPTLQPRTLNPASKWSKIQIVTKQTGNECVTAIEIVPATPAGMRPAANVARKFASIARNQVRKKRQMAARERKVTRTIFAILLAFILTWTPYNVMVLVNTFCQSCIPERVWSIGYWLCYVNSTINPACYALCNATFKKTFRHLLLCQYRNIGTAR

Rattus norvegicus [26] = test: Antipsychotic activity in ip dosed Sprague-Dawley rat assessed as reversal of amphetamine-induced hyperlocomotion after 90 mins; assay type: functional, organism-based
[27] = Systemic plasma AUC in rat at 10 mg/kg, ip up to 6 hrs

Sequence of Muscarinic acetylcholine receptor M5 (Homo sapiens, UniProt P08912) (P08912 whole entry): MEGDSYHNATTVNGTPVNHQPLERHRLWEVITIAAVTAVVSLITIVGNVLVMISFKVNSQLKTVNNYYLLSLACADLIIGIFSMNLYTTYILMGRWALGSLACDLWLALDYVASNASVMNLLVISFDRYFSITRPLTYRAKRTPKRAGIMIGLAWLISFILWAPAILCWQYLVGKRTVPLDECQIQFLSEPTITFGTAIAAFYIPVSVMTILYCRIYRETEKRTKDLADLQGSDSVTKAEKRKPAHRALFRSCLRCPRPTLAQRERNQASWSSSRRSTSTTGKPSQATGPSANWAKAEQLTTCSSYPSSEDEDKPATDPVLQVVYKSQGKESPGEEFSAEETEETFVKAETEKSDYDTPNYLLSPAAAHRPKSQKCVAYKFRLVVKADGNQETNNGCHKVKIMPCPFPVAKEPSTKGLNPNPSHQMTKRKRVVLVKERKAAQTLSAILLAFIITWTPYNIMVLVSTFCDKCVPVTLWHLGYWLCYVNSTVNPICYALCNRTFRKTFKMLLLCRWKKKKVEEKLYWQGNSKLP
Sequence of Muscarinic acetylcholine receptor M1 (Rattus norvegicus, UniProt P08482) (P08482 whole entry): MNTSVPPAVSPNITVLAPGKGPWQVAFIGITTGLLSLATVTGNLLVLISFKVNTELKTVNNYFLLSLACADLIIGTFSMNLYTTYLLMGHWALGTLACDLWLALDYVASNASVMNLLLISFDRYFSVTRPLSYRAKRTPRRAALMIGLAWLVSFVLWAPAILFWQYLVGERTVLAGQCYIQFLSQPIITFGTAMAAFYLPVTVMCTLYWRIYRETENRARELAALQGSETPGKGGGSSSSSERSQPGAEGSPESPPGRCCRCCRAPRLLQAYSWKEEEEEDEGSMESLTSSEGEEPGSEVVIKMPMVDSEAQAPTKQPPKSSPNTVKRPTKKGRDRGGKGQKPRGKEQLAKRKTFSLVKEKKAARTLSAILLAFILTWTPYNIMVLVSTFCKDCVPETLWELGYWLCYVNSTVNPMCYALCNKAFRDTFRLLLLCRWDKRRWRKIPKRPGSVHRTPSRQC
Sequence of Muscarinic acetylcholine receptor M5 (Rattus norvegicus, UniProt P08911) (P08911 whole entry): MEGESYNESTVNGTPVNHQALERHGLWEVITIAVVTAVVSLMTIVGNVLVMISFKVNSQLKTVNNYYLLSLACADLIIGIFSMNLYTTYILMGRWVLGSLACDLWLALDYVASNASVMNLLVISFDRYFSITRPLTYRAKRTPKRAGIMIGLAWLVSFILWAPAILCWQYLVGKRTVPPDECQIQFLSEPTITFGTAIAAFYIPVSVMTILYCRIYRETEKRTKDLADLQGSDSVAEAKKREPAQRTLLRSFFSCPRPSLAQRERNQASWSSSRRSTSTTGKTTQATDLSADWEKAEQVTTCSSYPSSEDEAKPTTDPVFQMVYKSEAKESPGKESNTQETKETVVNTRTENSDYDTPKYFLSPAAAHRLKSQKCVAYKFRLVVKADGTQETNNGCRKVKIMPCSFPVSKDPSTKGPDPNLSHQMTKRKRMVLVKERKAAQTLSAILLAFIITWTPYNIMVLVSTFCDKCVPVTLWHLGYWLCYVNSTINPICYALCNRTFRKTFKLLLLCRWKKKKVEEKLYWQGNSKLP
Sequence of Muscarinic acetylcholine receptor M2 (Homo sapiens, UniProt P08172) (P08172 whole entry): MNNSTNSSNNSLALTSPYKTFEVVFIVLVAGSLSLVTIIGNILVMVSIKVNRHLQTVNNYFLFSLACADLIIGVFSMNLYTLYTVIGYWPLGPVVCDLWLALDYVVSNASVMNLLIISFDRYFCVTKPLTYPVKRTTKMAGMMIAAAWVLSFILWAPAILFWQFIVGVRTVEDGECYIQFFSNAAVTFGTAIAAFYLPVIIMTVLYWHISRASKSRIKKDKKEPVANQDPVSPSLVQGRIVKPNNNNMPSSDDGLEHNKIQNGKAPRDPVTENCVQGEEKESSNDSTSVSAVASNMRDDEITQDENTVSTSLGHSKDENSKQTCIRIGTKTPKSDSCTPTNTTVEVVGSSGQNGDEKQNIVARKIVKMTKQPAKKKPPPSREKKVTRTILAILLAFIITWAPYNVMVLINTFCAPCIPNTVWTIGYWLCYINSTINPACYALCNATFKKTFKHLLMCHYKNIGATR
Sequence of Sodium-dependent dopamine transporter (Homo sapiens) (Q01959 whole entry): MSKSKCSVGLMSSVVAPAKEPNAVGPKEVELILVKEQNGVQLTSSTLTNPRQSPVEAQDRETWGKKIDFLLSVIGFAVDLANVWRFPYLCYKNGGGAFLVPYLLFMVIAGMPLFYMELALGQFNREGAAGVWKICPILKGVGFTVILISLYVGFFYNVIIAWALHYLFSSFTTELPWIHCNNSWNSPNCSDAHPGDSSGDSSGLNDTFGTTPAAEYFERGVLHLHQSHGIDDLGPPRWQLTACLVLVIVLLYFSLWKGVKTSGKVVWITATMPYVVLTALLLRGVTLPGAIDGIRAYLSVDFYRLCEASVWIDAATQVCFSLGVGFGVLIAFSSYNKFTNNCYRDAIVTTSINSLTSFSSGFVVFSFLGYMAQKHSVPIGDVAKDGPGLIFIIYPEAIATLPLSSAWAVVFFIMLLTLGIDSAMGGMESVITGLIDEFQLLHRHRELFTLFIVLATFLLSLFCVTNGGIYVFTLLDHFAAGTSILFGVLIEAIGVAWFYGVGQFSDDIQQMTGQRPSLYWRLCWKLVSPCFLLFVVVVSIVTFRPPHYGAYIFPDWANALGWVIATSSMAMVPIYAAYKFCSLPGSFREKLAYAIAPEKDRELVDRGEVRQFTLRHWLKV
Sequence of Muscarinic acetylcholine receptor M3 (Rattus norvegicus, UniProt P08483) (P08483 whole entry): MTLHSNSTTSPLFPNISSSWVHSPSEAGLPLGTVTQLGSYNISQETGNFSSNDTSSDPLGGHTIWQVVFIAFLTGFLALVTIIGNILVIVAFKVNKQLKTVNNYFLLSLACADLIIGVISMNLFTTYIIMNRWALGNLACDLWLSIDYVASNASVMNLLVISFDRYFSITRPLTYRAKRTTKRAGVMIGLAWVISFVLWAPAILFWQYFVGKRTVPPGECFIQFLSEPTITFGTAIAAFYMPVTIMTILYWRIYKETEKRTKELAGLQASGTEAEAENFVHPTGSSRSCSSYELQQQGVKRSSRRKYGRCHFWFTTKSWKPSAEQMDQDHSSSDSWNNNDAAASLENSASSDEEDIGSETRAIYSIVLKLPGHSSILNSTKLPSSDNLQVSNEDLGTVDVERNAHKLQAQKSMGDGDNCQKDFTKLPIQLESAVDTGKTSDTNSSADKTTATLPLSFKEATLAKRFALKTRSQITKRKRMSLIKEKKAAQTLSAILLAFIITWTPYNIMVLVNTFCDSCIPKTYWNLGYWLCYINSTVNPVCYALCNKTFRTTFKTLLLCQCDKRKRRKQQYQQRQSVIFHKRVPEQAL
Sequence of Muscarinic acetylcholine receptor M2 (Rattus norvegicus, UniProt P10980) (P10980 whole entry): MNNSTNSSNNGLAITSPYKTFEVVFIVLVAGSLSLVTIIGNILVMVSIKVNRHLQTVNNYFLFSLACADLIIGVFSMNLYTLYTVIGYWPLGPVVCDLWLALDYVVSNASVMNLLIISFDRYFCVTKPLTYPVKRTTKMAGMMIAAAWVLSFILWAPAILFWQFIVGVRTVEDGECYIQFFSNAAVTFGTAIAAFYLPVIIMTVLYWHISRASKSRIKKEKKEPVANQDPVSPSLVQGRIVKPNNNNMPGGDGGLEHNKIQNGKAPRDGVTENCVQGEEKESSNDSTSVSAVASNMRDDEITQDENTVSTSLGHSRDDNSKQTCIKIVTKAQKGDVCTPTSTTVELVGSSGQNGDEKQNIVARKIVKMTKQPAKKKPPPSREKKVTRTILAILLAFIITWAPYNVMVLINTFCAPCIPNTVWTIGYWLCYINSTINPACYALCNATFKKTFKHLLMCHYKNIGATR
Sequence of Muscarinic acetylcholine receptor M1 (Homo sapiens, UniProt P11229) (P11229 whole entry): as the sequence (P08482 whole entry) above, with V5A, S254T, S309P, K320R, G337A, V413I counted along it
Sequence of Muscarinic acetylcholine receptor M3 (Homo sapiens, UniProt P20309) (P20309 whole entry): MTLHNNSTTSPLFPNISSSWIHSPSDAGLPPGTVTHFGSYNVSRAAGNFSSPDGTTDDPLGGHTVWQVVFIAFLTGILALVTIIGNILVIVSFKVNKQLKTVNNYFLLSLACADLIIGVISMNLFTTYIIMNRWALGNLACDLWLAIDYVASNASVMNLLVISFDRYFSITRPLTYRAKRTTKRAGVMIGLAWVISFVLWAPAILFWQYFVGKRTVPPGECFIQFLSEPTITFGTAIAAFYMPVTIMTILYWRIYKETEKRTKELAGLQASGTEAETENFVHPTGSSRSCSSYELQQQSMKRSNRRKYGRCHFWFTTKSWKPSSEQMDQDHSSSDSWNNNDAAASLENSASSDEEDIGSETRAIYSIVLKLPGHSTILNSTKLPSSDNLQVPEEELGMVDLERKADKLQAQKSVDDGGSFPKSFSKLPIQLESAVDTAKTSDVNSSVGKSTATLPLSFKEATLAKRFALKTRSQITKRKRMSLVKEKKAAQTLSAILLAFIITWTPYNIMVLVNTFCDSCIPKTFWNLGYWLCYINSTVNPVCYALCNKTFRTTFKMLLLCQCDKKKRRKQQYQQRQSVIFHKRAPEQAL

Compound: Cc1nc2sc(C(=O)NCc3ccc(F)c(F)c3)c(N)c2c(C)c1Cl
%max [1]: 42%
EC50 [2]: 160 nM

Compound: Cc1nc2sc(C(=O)NCc3ccnnc3)c(N)c2c(C)c1Cl
%max [1]: 74.5%
EC50 [2]: 326 nM

Compound: Cc1nc2sc(C(=O)NCCc3ccccn3)c(N)c2c(C)c1Cl
%max [1]: 61.7%
EC50 [2]: 844 nM

Compound: Cc1nc2sc(C(=O)NCc3ccccc3Cl)c(N)c2c(C)c1Cl
%max [1]: 32.4%
EC50 [2]: 160 nM

Compound: Cc1nc2sc(C(=O)NCc3ccc(C(F)(F)F)cc3)c(N)c2c(C)c1Cl
%max [1]: 33.6%
EC50 [2]: 1750 nM

Compound: Cc1nc2sc(C(=O)NCc3ccncc3)c(N)c2c(C)c1Cl
Activity (Rattus norvegicus [3]): 57.3%
Activity (Rattus norvegicus [4]): 53.7%
Activity (Rattus norvegicus [5]): 47.9%
Activity (Rattus norvegicus [6]): 25.7%
Activity (Rattus norvegicus [7]): 18.7%
Drug uptake (Brain): 3410 ng/g
AUC [8]: 175 ng·h/mL
MRT [9]: 27.5 min
Vd [10]: 2.6 L/kg
half-life [11]: 17.5 min
clearance [12]: 104 mL/min/kg
inhibition [13]: 74%
inhibition (Rattus norvegicus [14]): 64%
EC50 [15]: > 30000 nM
EC50 [16]: > 30000 nM
EC50 [17]: > 30000 nM
EC50 [18]: > 30000 nM
EC50 [19]: > 30000 nM
EC50 [20]: > 30000 nM
EC50 [21]: > 30000 nM
EC50 [22]: > 30000 nM
Fu (Plasma): 1.7%
fold change (FC) [23]: 49.6
fold change (FC) [24]: 106
EC50 [25]: 176 nM
%max [1]: 94.1%
EC50 [2]: 56 nM
Activity (Rattus norvegicus [26]): Dose-dependent effect
AUC at 6 h [27]: 3880 ng·h/mL

Compound: Cc1nc2sc(C(=O)NCc3ccccc3N(C)C)c(N)c2c(C)c1Cl
EC50 [2]: > 30000 nM

Compound: Cc1nc2sc(C(=O)NCc3ncccn3)c(N)c2c(C)c1Cl
%max [1]: 51%
EC50 [2]: 810 nM

Compound: Cc1nc2sc(C(=O)NCc3cccnc3)c(N)c2c(C)c1Cl
%max [1]: 84.9%
EC50 [2]: 208 nM

Second part, the compound after the results:

%max [1]: 51.1%
EC50 [2]: 1370 nM
Compound: Cc1nc2sc(C(=O)NC(C)c3ccccn3)c(N)c2c(C)c1Cl (centres undefined)

%max [1]: 69.9%
EC50 [2]: 2010 nM
Compound: Cc1nc2sc(C(=O)NC3COC3)c(N)c2c(C)c1Cl

%max [1]: 77.3%
EC50 [2]: 147 nM
Compound: Cc1nc2sc(C(=O)NC(C)C)c(N)c2c(C)c1Cl

%max [1]: 75.8%
EC50 [2]: 61 nM
Compound: Cc1cc(CNC(=O)c2sc3nc(C)c(Cl)c(C)c3c2N)ccn1

%max [1]: 69.7%
EC50 [2]: 1410 nM
Compound: Cc1nc2sc(C(=O)NCC3CCCCC3)c(N)c2c(C)c1Cl

%max [1]: 57.3%
EC50 [2]: 669 nM
Compound: Cc1nc2sc(C(=O)NC(C)c3cccnc3)c(N)c2c(C)c1Cl (centres undefined)

%max [1]: 68.3%
EC50 [2]: 307 nM
Compound: Cc1nc2sc(C(=O)NC(C)(C)C)c(N)c2c(C)c1Cl

%max [1]: 30.7%
EC50 [2]: > 10000 nM
Compound: COc1ccc(NC(=O)c2sc3nc(C)c(Cl)c(C)c3c2N)cc1

%max [1]: 64.1%
EC50 [2]: 600 nM
Compound: Cc1nc2sc(C(=O)NC(C)c3ccncc3)c(N)c2c(C)c1Cl (centres undefined)

%max [1]: 92.2%
EC50 [2]: 52 nM
Compound: Cc1nc2sc(C(=O)NC3CCOC3)c(N)c2c(C)c1Cl (centres undefined)
